Assay results from the supplement of paper PMC11208160.

Test: recombinant UMI read abundance after kanamycin selection (control-corrected) (log10(CPM+1)); higher = more efficient recombination; extreme values may be limits of the assay; sequences stand for … in AGTGCAGAGAAAATCGGCCAGTTTTCTCTGCCTGCAGTCCGCATGCCGTGGGACCCCTTGGGTTCTAACCTGTTGCCTAGATTTATGCAGCGGACTGCCTTTCTCCCAAAGTGATAAACCGG…AGGTTGGTTTCACT; site = the 11-nt donor
In short: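 In Escherichia coli, a pool of donor and donor-binding-loop pairs, each with a 12-nt UMI, was tested for the IS621 bridge recombinase. Plating was on IPTG (0.07 mM) plus kanamycin, or without selection, in two replicates. Recombinant UMIs were amplified by PCR across the donor–target junction and sequenced, and counts were reported as log10(CPM+1) after averaging and control-derived scaling.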
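Further: IS621 bridge recombinase in Escherichia coli cells against a fixed T5 target plasmid.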

Point of comparison: “GATTGGACATGGACCGGTTTTCCCGGTAATCCGTATTTGAC (site TATTGGACTGT)”, “recombinant UMI read abundance (log10)” value 1.83. Against it:
- GATTATGCATGGACCGGTTTTCCCGGTAATCCGTATTTGCT (site GATTATACTAG) — lower, 1.54
- GATTATGCATGGACCGGTTTTCCCGGTAATCCGTATTTGCT (site GATTATCCTAG) — lower, 0.309
- GATTATGCATGGACCGGTTTTCCCGGTAATCCGTATTTGCT (site GATTATGCTAG) — higher, 2.13
- GATTATGCATGGACCGGTTTTCCCGGTAATCCGTATTTGCT (site GATTATTCTAG) — lower, 0
- GATTCACCATGGACCGGTTTTCCCGGTAATCCGTATTTGTT (site GATTCACCTAA) — lower, 0.0124
- GATTCGACATGGACCGGTTTTCCCGGTAATCCGTATTTGAC (site GATTAGACTGT) — lower, 0
- GATTCGACATGGACCGGTTTTCCCGGTAATCCGTATTTGAC (site GATTCGACTGT) — within 0.2 log units, 2.01
- GATTCGACATGGACCGGTTTTCCCGGTAATCCGTATTTGAC (site GATTGGACTGT) — lower, 0
- GATTCGACATGGACCGGTTTTCCCGGTAATCCGTATTTGAC (site GATTTGACTGT) — lower, 0
- GATTGCACATGGACCGGTTTTCCCGGTAATCCGTATTTGAC (site GATTGAACTGT) — lower, 0
- GATTGCACATGGACCGGTTTTCCCGGTAATCCGTATTTGAC (site GATTGCACTGT) — lower, 1.53
- GATTGCACATGGACCGGTTTTCCCGGTAATCCGTATTTGAC (site GATTGGACTGT) — lower, 0
- GATTGCACATGGACCGGTTTTCCCGGTAATCCGTATTTGAC (site GATTGTACTGT) — lower, 0
- GATTGCCCATGGACCGGTTTTCCCGGTAATCCGTATTTGAT (site GATTGCCCTAT) — lower, 0
- GATTGCCCATGGACCGGTTTTCCCGGTAATCCGTATTTGAT (site GCTTGCCCTAT) — lower, 0.0105
- GATTGCCCATGGACCGGTTTTCCCGGTAATCCGTATTTGAT (site GGTTGCCCTAT) — lower, 0.00714
- GATTGCCCATGGACCGGTTTTCCCGGTAATCCGTATTTGAT (site GTTTGCCCTAT) — lower, 0.00814
- GATTGGACATGGACCGGTTTTCCCGGTAATCCGTATTTGAA (site GATTGGACTAT) — lower, 0.0122
- GATTGGACATGGACCGGTTTTCCCGGTAATCCGTATTTGAA (site GATTGGACTCT) — lower, 0.0133
- GATTGGACATGGACCGGTTTTCCCGGTAATCCGTATTTGAA (site GATTGGACTGT) — lower, 0
- GATTGGACATGGACCGGTTTTCCCGGTAATCCGTATTTGAA (site GATTGGACTTT) — lower, 0.419
- GATTGGACATGGACCGGTTTTCCCGGTAATCCGTATTTGAC (site AATTGGACTGT) — lower, 0.543
- GATTGGACATGGACCGGTTTTCCCGGTAATCCGTATTTGAC (site CATTGGACTGT) — lower, 0.263
- GATTGGACATGGACCGGTTTTCCCGGTAATCCGTATTTGAC (site GAATGGACTGT) — lower, 1.41
- GATTGGACATGGACCGGTTTTCCCGGTAATCCGTATTTGAC (site GACTGGACTGT) — lower, 0
- GATTGGACATGGACCGGTTTTCCCGGTAATCCGTATTTGAC (site GAGTGGACTGT) — lower, 0
- GATTGGACATGGACCGGTTTTCCCGGTAATCCGTATTTGAC (site GATAGGACTGT) — lower, 0.353
- GATTGGACATGGACCGGTTTTCCCGGTAATCCGTATTTGAC (site GATCGGACTGT) — lower, 0.745
- GATTGGACATGGACCGGTTTTCCCGGTAATCCGTATTTGAC (site GATGGGACTGT) — lower, 0
- GATTGGACATGGACCGGTTTTCCCGGTAATCCGTATTTGAC (site GATTAGACTGT) — lower, 0
- GATTGGACATGGACCGGTTTTCCCGGTAATCCGTATTTGAC (site GATTCGACTGT) — lower, 0
- GATTGGACATGGACCGGTTTTCCCGGTAATCCGTATTTGAC (site GATTGAACTGT) — lower, 0
- GATTGGACATGGACCGGTTTTCCCGGTAATCCGTATTTGAC (site GATTGCACTGT) — lower, 0
- GATTGGACATGGACCGGTTTTCCCGGTAATCCGTATTTGAC (site GATTGGACTAT) — lower, 0.0111
- GATTGGACATGGACCGGTTTTCCCGGTAATCCGTATTTGAC (site GATTGGACTCT) — lower, 0.00872
- GATTGGACATGGACCGGTTTTCCCGGTAATCCGTATTTGAC (site GATTGGACTGA) — lower, 0.0103
- GATTGGACATGGACCGGTTTTCCCGGTAATCCGTATTTGAC (site GATTGGACTGC) — lower, 0
- GATTGGACATGGACCGGTTTTCCCGGTAATCCGTATTTGAC (site GATTGGACTGG) — lower, 0
- GATTGGACATGGACCGGTTTTCCCGGTAATCCGTATTTGAC (site GATTGGACTGT) — lower, 0.659
- GATTGGACATGGACCGGTTTTCCCGGTAATCCGTATTTGAC (site GATTGGACTTT) — lower, 0.0228
- GATTGGACATGGACCGGTTTTCCCGGTAATCCGTATTTGAC (site GATTGGCCTGT) — lower, 0
- GATTGGACATGGACCGGTTTTCCCGGTAATCCGTATTTGAC (site GATTGGGCTGT) — lower, 0
- GATTGGACATGGACCGGTTTTCCCGGTAATCCGTATTTGAC (site GATTGGTCTGT) — lower, 0
- GATTGGACATGGACCGGTTTTCCCGGTAATCCGTATTTGAC (site GATTGTACTGT) — lower, 0
- GATTGGACATGGACCGGTTTTCCCGGTAATCCGTATTTGAC (site GATTTGACTGT) — lower, 0
- GATTGGACATGGACCGGTTTTCCCGGTAATCCGTATTTGAC (site GCTTGGACTGT) — lower, 0
- GATTGGACATGGACCGGTTTTCCCGGTAATCCGTATTTGAC (site GGTTGGACTGT) — lower, 0.928
- GATTGGACATGGACCGGTTTTCCCGGTAATCCGTATTTGAC (site GTTTGGACTGT) — lower, 0
- GATTGGACATGGACCGGTTTTCCCGGTAATCCGTATTTGAG (site GATTGGACTAT) — lower, 0.00853
- GATTGGACATGGACCGGTTTTCCCGGTAATCCGTATTTGAG (site GATTGGACTCT) — lower, 1.33
- GATTGGACATGGACCGGTTTTCCCGGTAATCCGTATTTGAG (site GATTGGACTGT) — lower, 0
- GATTGGACATGGACCGGTTTTCCCGGTAATCCGTATTTGAG (site GATTGGACTTT) — lower, 0.0197
- GATTTATCATGGACCGGTTTTCCCGGTAATCCGTATTTGAA (site GATTTATCTTT) — within 0.2 log units, 1.64
- GATTTATCATGGACCGGTTTTCCCGGTAATCCGTATTTGGC (site GATTTATCTGC) — lower, 1.38
- GATTTGGCATGGACCGGTTTTCCCGGTAATCCGTATTTGTC (site GATTTGGCTGA) — lower, 0
- GCAACCTCATGGACCGGTTTTCCCGGTAATCCGTATTTGCC (site GCAACCTCTGG) — lower, 0.0535
- GCAACGCCATGGACCGGTTTTCCCGGTAATCCGTATTTGTA (site GCAACGCCTTA) — lower, 0.399
- GCAACGCCATGGACCGGTTTTCCCGGTAATCCGTATTTGTA (site GCCACGCCTTA) — lower, 0.026
- GCAACGCCATGGACCGGTTTTCCCGGTAATCCGTATTTGTA (site GCGACGCCTTA) — lower, 0.015
- GCAACGCCATGGACCGGTTTTCCCGGTAATCCGTATTTGTA (site GCTACGCCTTA) — lower, 0.0211
- GCAAGAGCATGGACCGGTTTTCCCGGTAATCCGTATTTGGC (site GCAAGAGCTGC) — within 0.2 log units, 1.82
- GCAAGATCATGGACCGGTTTTCCCGGTAATCCGTATTTGGA (site GCAAGATCTTC) — within 0.2 log units, 1.69
- GCAAGCTCATGGACCGGTTTTCCCGGTAATCCGTATTTGTG (site GCAAGCTCTCA) — higher, 2.55
- GCACGACCATGGACCGGTTTTCCCGGTAATCCGTATTTGCA (site GCACGACCTTG) — lower, 0
- GCACGTTCATGGACCGGTTTTCCCGGTAATCCGTATTTGGC (site GCACGTTCTGC) — higher, 2.74
- GCACTTGCATGGACCGGTTTTCCCGGTAATCCGTATTTGGC (site GCACTTGCTGC) — higher, 2.1
- GCAGAATCATGGACCGGTTTTCCCGGTAATCCGTATTTGCA (site ACAGTATCTTG) — within 0.2 log units, 1.67
